From patent publication US20070026090A1, “Treatment and prevention of inflammatory disease and mitochondrial dysfunction with high dose selenium” (priority 2003, published 2007)

Experiments:
[1] = system: Sp1; experiment: Sp1 protein (Western blot); assay type: cell-based, murine; conditions: FIG. 13B
Experimental: (§1) Western blots (Sp1, MnSOD, UCP2): Cells were grown in six-well tissue culture plates, treated with selenium for 72 h and activated with LPS and IFN-γ for 24 h. The wells were washed with PBS, scraped and centrifuged
(5 min. 2000 RPM), and lysed by addition of boiling hot lysis buffer (1% SDS, 1 mM sodium ortho-vanadate, 10 mM Tris pH 7.4) to the pellets. Protein content was measured (BIO RAD protein assay kit) and equalized. Sample buffer (containg SDS) was added and the samples were boiled. The samples were subjected to SDS-PAGE followed by western blot analysis. Separated proteins were transferred electrophoretically from the gel to a nitrocellulose membrane (Amersham International plc, Buckinghamshire, ENGLAND). The membrane was blocked in TBS (0.15 M NaCl/10 mM Tris/HCl, pH7.4) containing 5% (v/v) skimmed milk (Blotto), then incubated over night with primary antibodies at RT (diluted 1/2000 in blotto). After being washed six times in TBST [TBS containing 0.05% (v/v) Tween 20], the membrane was incubated for 2 h at room temperature with secondary antibody (diluted 1/5000 in blotto). Immunoreactive bands were detected with ECL western blotting detection reagents (Amersham Pharmacia Biotech, Buckingammshire England) and developed on film (Fuji super RX, Dusseldorf, Germany). […]

[2] = system: UCP2; experiment: UCP2 transcription and expression (RTPCR, Western blot); assay type: cell-based, murine
Experimental: Cell culture: Murine J774.2 macrophages (kindly provided by Prof. Dov Zipori from the Weizmann Institute of Science) were grown in RPMI medium supplemented with 10% (w/v) fetal calf serum, penicillin (100 U/ml), streptomycin (100 μg/ml) and 1× glutamine at 37° C. in a humidified atmosphere consisting of 95% air and 5% CO2. Experiments were performed on cells at 60% confluence.
as §1
(5 min. 2000 RPM), and lysed by addition of boiling hot lysis buffer (1% SDS, 1 mM sodium ortho-vanadate, 10 mM Tris pH 7.4) to the pellets. Protein content was measured (BIO RAD protein assay kit) and equalized. Sample buffer (containg SDS) was added and the samples were boiled. The samples were subjected to SDS-PAGE followed by western blot analysis. Separated proteins were transferred electrophoretically from the gel to a nitrocellulose membrane (Amersham International plc, Buckinghamshire, ENGLAND). The membrane was blocked in TBS (0.15 M NaCl/10 mM Tris/HCl, pH7.4) containing 5% (v/v) skimmed milk (Blotto), then incubated over night with primary antibodies at RT (diluted 1/2000 in blotto). After being washed six times in TBST [TBS containing 0.05% (v/v) Tween 20], the membrane was incubated for 2 h at room temperature with secondary antibody (diluted 1/5000 in blotto). Immunoreactive bands were detected with ECL western blotting detection reagents (Amersham Pharmacia Biotech, Buckingammshire England) and developed on film (Fuji super RX, Dusseldorf, Germany). Primary antibodies for Sp1 and MnSOD were from BD Transduction Laboratories (Becton Dickenson and Co., San Jose, Calif. USA) and for UCP2 from Alpha Diagnostics LTD (Warszaw, Poland). Secondary antibodies were from Jackson ImmunoResearch (Jackson Labs, Bar Harbor, Maine, USA).
Reverse transcriptase-PCR (RTPCR): Total RNA was prepared and isolated by the Tri-Reagent method according to the manufacturer's protocol (Sigma, St. Louis Mo., USA). Total RNA (1 μg) was converted into cDNA using Reverse-iT first strand synthesis kit (Abgene, UK). Amplification of MnSOD and UCP2 sequences was performed by incubating 10 ng equivalents of DNA with the following oligonucleotide primers:
Left (sense), 5′-[…]-3′ (SEQ ID NO:7) corresponding to nucleotides 372 to 392 of mouse mRNA (GenBank Accession No. NM 011671).
Right (antisense) 5′[…]-3′ (SEQ ID NO: 8) corresponding to nucleotides 826 to 846 of mouse mRNA (GenBank Accession No. NM 011671). The expected PCR product was 474 bp. Actual PCR product was approximately 474 bp, measured on 1.25% agarose gel in TAE containing ethidium bromide.
PCR was performed with 28 cycles (25 cycles for GAPDH) of 30 seconds at 96° C., 30 seconds at 58° C. and 1 min at 72° C. RTPCR products were analyzed on 1.3% (w/v) agarose gels.

[3] = system: 18S RNA and GAPDH; experiment: Housekeeping transcripts 18S and GAPDH in colon tissue (RT-PCR); assay type: in vivo, rat; conditions: supplemented rats (FIG. 7A)
[4] = system: myocarditic Coxsackie virus B3; conditions: 5 ppm in the water; cited from earlier work
[5] = system: myeloperoxidase (MPO) activity; experiment: Tissue inflammation: myeloperoxidase activity in colon tissue; assay type: in vivo, rat; conditions: supplemented rats, 24 h after TNBS; unsupplemented rats greater than 30-fold
Experimental: Tissue inflammation-Myeloperoxidase activity: Colonic tissue samples (approximately 100-120 mg) were collected 4 cm proximal to the anus. Each tissue sample was homogenized in a solution containing 0.5% hexa-decyl-trimethyl-ammonium bromide (HTAB) (Sigma-Aldrich Corp, St. Louis, Mo.) buffer (0.5% HTAB in 50 mM phosphate buffer, pH 6.0). Tissue samples were minced in a test tube containing 1 ml of HTAB buffer on ice and homogenized with a Polytron tissue homogenizer (Brinkmann Instruments, Inc, Westbury N.Y., USA). The pooled homogenates and washes were sonicated in water for 20 seconds. After three cycles of freeze-thawing, the sonicated samples were centrifuged in cold for 15 min. at 40,000×g. Myeloperoxidase activity (MPO) was assayed in the supernatant as described by Krawisz (Krawisz et al., 1984) after addition of O-dianizidine-HCl (Sigma-Aldrich Corp, St Louis, Mo.) and 0.15% (v/v) H2O2 as a substrate for the MPO. The rate of change in absorbance was measured spectrophotometrically at 460 nm, and is expressed as the amount of enzyme necessary to produce a change in absorbance of 1.0 unit per minute (1 unit) per gram wet weight tissue.

[6] = system: hapten (TNBS)-induced colitis
Experimental: Animals: Male Sprague-Dawley rats (approximately 150 g bw) received food and water ad libitum. They were kept in plastic cages with wire tops in a light-controlled room.
High-dose dietary selenium supplementation: Rats received food and (unsupplemented) water ad libitum (control group). Normal selenium (control) diet included 0.2 mg selenium/kg chow. […] The high-selenium diet provided approximately 2-3 μ/gm day of selenium per animal, which is considered an acceptable excess supplementation diet for this element (Davis et al., 1998; Shilo et al., 2003).
Induction of colitis and sample collection: Colitis was induced by administration of 0.5 ml of 2,4,6-trinitrobenzene sulphonic acid (TNBS, 100 mg/ml dissolved in 50% ethanol)through the anal canal, at a distance of 8 cm into the colon, just proximal to the splenic flexure. 24 hours after induction animals were sacrificed and the colon was removed for pathology, histocytological, biochemical or immunohistocytological analysis (Reifen et al., 2000).

[Se] [selenium]
Sp-1 gene expression / synthesis (Western blot) [1]: no change
UCP2 transcripts and protein ([2]; 24 or 72 hours, concentration dependent, to a lesser extent than MnSOD): reduced the abundance
UCP2 expression, activated macrophages ([2]; exposure (72 hours) prior to activation, concentration dependent (FIG. 11)): decreased
18S and GAPDH transcription [3]: without effecting
inflammatory lesions and necrosis [4]: no effect
myeloperoxidase elevation following hapten administration, compared to uninduced controls [5]: approximately 5 fold
necrosis, share of the colon (gross pathology) ([6]; 24 h after TNBS, 3 weeks high-dose supplementation, unsupplemented rat more than 80%): less than 15%
effects on colon tissue of healthy, uninduced rats (gross pathology) ([6]; rat, in vivo): no apparent effects
